Test results taken from ChEMBL document CHEMBL1201862, “PubChem BioAssay data set” (2004).
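Cultured in 96-well plates, cells were exposed to test compound for 48 hours across five concentrations. GI50 marks 50% less growth.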 The source made the active and inactive calls. No stated cut-off is given here; in the data, active = GI50 up to about 1.1 µM and inactive = higher.

Legend:
Assay in all cases: NCI-60 cell line screen, 48 h
HT-29 = system: HT-29
CAKI-1 = system: CAKI-1
NCI-H460 = system: NCI-H460
ACHN = system: ACHN
K562 = system: K562
SF-295 = system: SF-295
786-0 = system: 786-0
UO-31 = system: UO-31
COLO 205 = system: COLO 205
HOP-62 = system: HOP-62
HOP-92 = system: HOP-92
LOX IMVI = system: LOX IMVI
OVCAR-4 = system: OVCAR-4
Hs-578T = system: Hs-578T
A549 = system: A549
PC-3 = system: PC-3
HCT-116 = system: HCT-116
UACC-62 = system: UACC-62
SF-539 = system: SF-539

Row | SMILES | GI50 (HT-29) | GI50 (CAKI-1) | GI50 (NCI-H460) | GI50 (ACHN) | GI50 (K562) | GI50 (SF-295) | GI50 (786-0) | GI50 (UO-31) | GI50 (COLO 205) | GI50 (HOP-62) | GI50 (HOP-92) | GI50 (LOX IMVI) | GI50 (OVCAR-4) | GI50 (Hs-578T) | GI50 (A549) | GI50 (PC-3) | GI50 (HCT-116) | GI50 (UACC-62) | GI50 (SF-539)
1 | c1ccc2c(c1)ccc1ncccc12 | > 100 µM (inactive) | 85.9 µM (inactive) | > 100 µM (inactive) | > 100 µM (inactive) | > 100 µM (inactive) | > 100 µM (inactive) | > 100 µM (inactive) | > 100 µM (inactive) | > 100 µM (inactive) | > 100 µM (inactive) | 44.6 µM (inactive) | > 100 µM (inactive) | > 100 µM (inactive) | > 100 µM (inactive) | > 100 µM (inactive) | 98.2 µM (inactive) | > 100 µM (inactive) | 83.8 µM (inactive) | > 100 µM (inactive)
2 | O=C1OC(C2Cc3ccc4ccccc4c3C2=O)c2ccccc21 (stereo not drawn) |  | 61.9 µM (inactive) | 49.7 µM (inactive) | 53.1 µM (inactive) | 57.7 µM (inactive) | 32.4 µM (inactive) | 46.3 µM (inactive) | 71.3 µM (inactive) | > 100 µM (inactive) |  | 49.8 µM (inactive) | 38 µM (inactive) | 24.4 µM (inactive) | 31.6 µM (inactive) | 36.9 µM (inactive) | 48.8 µM (inactive) | 41.4 µM (inactive) | 33.7 µM (inactive) | 21.6 µM (inactive)
3 | C=C1CC[C@H]2C(=O)OC(c3ccoc3)C[C@]2(C)C/C=C\C=C/1C(=O)OC (stereo partly drawn) | > 25 µM (inactive) | > 25 µM (inactive) | > 25 µM (inactive) | > 25 µM (inactive) | > 25 µM (inactive) | > 25 µM (inactive) | > 25 µM (inactive) | 13.6 µM (inactive) | > 25 µM (inactive) | > 25 µM (inactive) | > 25 µM (inactive) | > 25 µM (inactive) | > 25 µM (inactive) | > 25 µM (inactive) | > 25 µM (inactive) | > 25 µM (inactive) | > 25 µM (inactive) | > 25 µM (inactive) | > 25 µM (inactive)
4 | COc1cc(C2SCC(=O)N2c2cc(Cl)c(Cl)cc2Cl)cc(OC)c1OC (stereo not drawn) | 76.7 µM (inactive) | 28.7 µM (inactive) | 36.3 µM (inactive) | 42.3 µM (inactive) | 42 µM (inactive) | 49.8 µM (inactive) | 38.2 µM (inactive) | 34.7 µM (inactive) | 39.5 µM (inactive) |  | 28.6 µM (inactive) | 33.7 µM (inactive) | 38.6 µM (inactive) | 99.8 µM (inactive) | 38.5 µM (inactive) | 62.8 µM (inactive) | 38.3 µM (inactive) | 22.2 µM (inactive) | 43.1 µM (inactive)
5 | CCOC(=O)/C(C(=O)NC(C)C)=C(/N)N1CCOCC1 | > 100 µM (inactive) | > 100 µM (inactive) | > 100 µM (inactive) | > 100 µM (inactive) | > 100 µM (inactive) | > 100 µM (inactive) | > 100 µM (inactive) |  | > 100 µM (inactive) | > 100 µM (inactive) | > 100 µM (inactive) | > 100 µM (inactive) | > 100 µM (inactive) | > 100 µM (inactive) | > 100 µM (inactive) | > 100 µM (inactive) | > 100 µM (inactive) | > 100 µM (inactive) | > 100 µM (inactive)
6 | CC1=C/C(=N\NC(N)=S)C(C(O)(C(F)(F)F)C(F)(F)F)C(C)(C)C1 (stereo not drawn) | > 10 µM (inactive) | > 10 µM (inactive) | > 10 µM (inactive) | > 10 µM (inactive) | > 10 µM (inactive) | > 10 µM (inactive) | > 10 µM (inactive) |  | > 10 µM (inactive) | > 10 µM (inactive) | > 10 µM (inactive) | > 10 µM (inactive) | > 10 µM (inactive) | > 10 µM (inactive) | > 10 µM (inactive) | > 10 µM (inactive) | > 10 µM (inactive) | > 10 µM (inactive) | > 10 µM (inactive)
7 | COc1ccc(C2OC[C@H]3O[C@@H](OCc4ccccc4)[C@H](O)[C@@H](O)[C@@H]3O2)cc1 (stereo partly drawn) | > 100 µM (inactive) | > 100 µM (inactive) | > 100 µM (inactive) | > 100 µM (inactive) | > 100 µM (inactive) | > 100 µM (inactive) |  | > 100 µM (inactive) | > 100 µM (inactive) | > 100 µM (inactive) | 35.8 µM (inactive) | > 100 µM (inactive) | 84.5 µM (inactive) | 55.5 µM (inactive) | > 100 µM (inactive) | 99.8 µM (inactive) | > 100 µM (inactive) | > 100 µM (inactive) | > 100 µM (inactive)
8 | O=c1c2c(nc3[nH]ccn13)CCC2 | > 10 µM (inactive) | > 10 µM (inactive) | > 10 µM (inactive) | > 10 µM (inactive) | > 10 µM (inactive) | > 10 µM (inactive) | > 10 µM (inactive) | > 10 µM (inactive) | > 10 µM (inactive) | > 10 µM (inactive) | > 10 µM (inactive) | > 10 µM (inactive) | > 10 µM (inactive) | > 10 µM (inactive) | > 10 µM (inactive) | > 10 µM (inactive) | > 10 µM (inactive) | > 10 µM (inactive) | > 10 µM (inactive)
9 | CCOP(=O)(C/C=C/Cn1ncc(=O)[nH]c1=O)OCC | > 100 µM (inactive) | > 100 µM (inactive) | > 100 µM (inactive) | 63.2 µM (inactive) | > 100 µM (inactive) |  |  | > 100 µM (inactive) | > 100 µM (inactive) | > 100 µM (inactive) | > 100 µM (inactive) | > 100 µM (inactive) | > 100 µM (inactive) | > 100 µM (inactive) | > 100 µM (inactive) | > 100 µM (inactive) |  |  | > 100 µM (inactive)
10 | C=CCn1c(-c2ccc(Cl)cc2)cs/c1=N\c1ccccc1OC |  | > 45.2 µM (inactive) | 36 µM (inactive) | > 100 µM (inactive) | 3.44 µM (inactive) | 16.6 µM (inactive) | > 100 µM (inactive) | > 100 µM (inactive) | 35.8 µM (inactive) | 48.9 µM (inactive) | > 65 µM (inactive) | 41.1 µM (inactive) | > 58.5 µM (inactive) | > 100 µM (inactive) | 33 µM (inactive) | 32.7 µM (inactive) | 9.31 µM (inactive) | 10.1 µM (inactive) | > 76.7 µM (inactive)
11 | CCOC(=O)c1nc2cc(C(F)(F)F)ccc2nc1Oc1ccc(OC)cc1 |  | > 100 µM (inactive) | 70.8 µM (inactive) | > 100 µM (inactive) | > 100 µM (inactive) | > 100 µM (inactive) | > 100 µM (inactive) | > 100 µM (inactive) | > 100 µM (inactive) |  | > 100 µM (inactive) | > 100 µM (inactive) | > 100 µM (inactive) | > 100 µM (inactive) | > 100 µM (inactive) | > 100 µM (inactive) | > 100 µM (inactive) | > 100 µM (inactive) | > 100 µM (inactive)
12 | C=CC1(C)OC2(CCN(C(=O)OCC)CC2)OC1C (stereo not drawn) | > 100 µM (inactive) | > 100 µM (inactive) | > 100 µM (inactive) | > 100 µM (inactive) | 45.7 µM (inactive) | > 100 µM (inactive) | > 100 µM (inactive) | > 100 µM (inactive) | > 100 µM (inactive) | > 100 µM (inactive) | > 100 µM (inactive) | > 100 µM (inactive) | > 100 µM (inactive) | > 100 µM (inactive) | > 100 µM (inactive) | > 100 µM (inactive) |  | > 100 µM (inactive) | > 100 µM (inactive)
13 | O=C(NC(OCc1ccccc1)(C(F)(F)F)C(F)(F)F)OCc1ccccc1 | 18 µM (inactive) | 14.4 µM (inactive) | 16.1 µM (inactive) | 15.7 µM (inactive) | 17.1 µM (inactive) | 17.6 µM (inactive) | 16.5 µM (inactive) | 11.2 µM (inactive) | 17.8 µM (inactive) | 15.1 µM (inactive) | 14.7 µM (inactive) | 14.5 µM (inactive) |  | 13.9 µM (inactive) | 15 µM (inactive) | 13.8 µM (inactive) | 16.4 µM (inactive) | 13.9 µM (inactive) | 17.3 µM (inactive)
14 | O=C(OCc1c(-c2ccccc2)nn(-c2ccccc2)c1COC(=O)Oc1ccccc1)Oc1ccccc1 | > 100 µM (inactive) | > 100 µM (inactive) | > 100 µM (inactive) | > 100 µM (inactive) | > 100 µM (inactive) | > 100 µM (inactive) | > 100 µM (inactive) |  | > 100 µM (inactive) | > 100 µM (inactive) | > 100 µM (inactive) | > 100 µM (inactive) | > 100 µM (inactive) | > 100 µM (inactive) | > 100 µM (inactive) | > 100 µM (inactive) | > 100 µM (inactive) | > 100 µM (inactive) | > 100 µM (inactive)
15 | COC1/C=C/C(C)C(OC)CC(O)/C=C/C(C)C(C(C)C(OC)C(C)CCC(=O)C(C)C(C/C=C/N(C)C=O)OC)OC(=O)/C=C/C=C(\C)CC(OC)C(OC)C2=CC(=O)O[C@@H](C(C)C(OC)C1)[C@H]2O (stereo partly drawn) | 0.0356 µM (active) | 0.0148 µM (active) | 0.0172 µM (active) | 0.0367 µM (active) |  | 0.0345 µM (active) | 0.0442 µM (active) | 0.0419 µM (active) | 0.0205 µM (active) | 0.0324 µM (active) | 0.0327 µM (active) | 0.00791 µM (active) | 0.0421 µM (active) | 0.0307 µM (active) | 0.0518 µM (active) | 0.0337 µM (active) | 0.00847 µM (active) | 0.0571 µM (active) | 0.0313 µM (active)
